Measured values as given in patent publication US20220323533A1, “COMPOSITION FOR PREVENTING, INHIBITING OR TREATING INFECTION OF CORONAVIRUS” (priority 2021, published 2022).

Legend:
[1] = system: Vero cells
[2] = system: SARS-CoV-2; format: cell-based

Row | Compound | CC50 [1] [µg/mL] | IC50 ([2]; SARS-CoV-2 (0.0125 MOI) in Vero cells, 24 hours, N protein immunofluorescence, highest concentration 500 μg/ml, two repeated experiments) [µg/mL] | inhibition of infection with SARS-CoV-2 (in words) ([2]; Vero cells, up to 500 μg/ml)
1 | Propolis [Comparative Example 1] | >500 | – | –
2 | OC[C@H]1NC[C@H](O)[C@@H](O)[C@@H]1O [Comparative Example 2, 1-Deoxynojirimycin] | >500 | >500 | did not inhibit infection
